According to PubChem BioAssay (NCI):
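How tested: cells in 96-well plates exposed to compound for 48 hours at five concentrations. GI50 is the concentration that inhibits growth by half. The concentration for full growth arrest is given as TGI.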

Experiments:
Experiment in all cases: growth of human tumour cells (NCI), 48 h
786-0 renal = test system: 786-0 renal
A498 renal = test system: A498 renal
A549 NSCLC = test system: A549 NSCLC
ACHN renal = test system: ACHN renal
BT-549 breast = test system: BT-549 breast
CAKI-1 renal = test system: CAKI-1 renal
CCRF-CEM leukemia = test system: CCRF-CEM leukemia
COLO 205 colon = test system: COLO 205 colon
DU-145 prostate = test system: DU-145 prostate
EKVX NSCLC = test system: EKVX NSCLC
HCC-2998 colon = test system: HCC-2998 colon
HCT-116 colon = test system: HCT-116 colon
HCT-15 colon = test system: HCT-15 colon
HL-60(TB) leukemia = test system: HL-60(TB) leukemia
HOP-62 NSCLC = test system: HOP-62 NSCLC
HOP-92 NSCLC = test system: HOP-92 NSCLC
HS 578T breast = test system: HS 578T breast
HT29 colon = test system: HT29 colon
IGROV1 ovarian = test system: IGROV1 ovarian
K-562 leukemia = test system: K-562 leukemia
KM12 colon = test system: KM12 colon
LOX IMVI melanoma = test system: LOX IMVI melanoma
M14 melanoma = test system: M14 melanoma
MALME-3M melanoma = test system: MALME-3M melanoma
MCF7 breast = test system: MCF7 breast
MDA-MB-231 breast = test system: MDA-MB-231 breast
MDA-MB-435 = test system: MDA-MB-435
MOLT-4 leukemia = test system: MOLT-4 leukemia
NCI-H226 lung = test system: NCI-H226 lung

Which GI50 (786-0 renal) does the source give for O=C(Nc1ncc(Cc2ccccc2)s1)c1sc2ccccc2c1Cl here?
The GI50 was 1.32 µM.

And the TGI (786-0 renal)?
The TGI was 40.1 µM.

What about the GI50 (A498 renal) of the same molecule?
Its GI50 is 0.286 µM.

What about the TGI (A498 renal) of the same molecule?
The TGI was 5.59 µM.

What about the GI50 (A549 NSCLC) of the same molecule?
The GI50 was 0.853 µM.

What about the TGI (A549 NSCLC) of the same molecule?
Its TGI is > 50.4 µM.

And the GI50 (ACHN renal)?
Its GI50 is 0.496 µM.

What about the TGI (ACHN renal) of the same molecule?
Its TGI is 48.6 µM.

What about the GI50 (BT-549 breast) of the same molecule?
The GI50 was 2.21 µM.

What about the TGI (BT-549 breast) of the same molecule?
Its TGI is 40 µM.

And the GI50 (CAKI-1 renal)?
The GI50 was 0.574 µM.

And the TGI (CAKI-1 renal)?
The TGI was 24.5 µM.

And the GI50 (CCRF-CEM leukemia)?
Its GI50 is 0.593 µM.

What about the TGI (CCRF-CEM leukemia) of the same molecule?
The TGI was > 100 µM.

And the GI50 (COLO 205 colon)?
The GI50 was 2.16 µM.

What about the TGI (COLO 205 colon) of the same molecule?
The TGI was > 100 µM.

What about the GI50 (DU-145 prostate) of the same molecule?
Its GI50 is 2.8 µM.

What about the TGI (DU-145 prostate) of the same molecule?
The TGI was 36.5 µM.

And the GI50 (EKVX NSCLC)?
The GI50 was 0.969 µM.

And the TGI (EKVX NSCLC)?
The TGI was > 100 µM.

And the GI50 (HCC-2998 colon)?
Its GI50 is 0.552 µM.

And the TGI (HCC-2998 colon)?
The TGI was 12.3 µM.

What about the GI50 (HCT-116 colon) of the same molecule?
The GI50 was 0.469 µM.

And the TGI (HCT-116 colon)?
Its TGI is > 76.6 µM.

And the GI50 (HCT-15 colon)?
The GI50 was 0.0449 µM.

What about the TGI (HCT-15 colon) of the same molecule?
The TGI was > 100 µM.

What about the GI50 (HL-60(TB) leukemia) of the same molecule?
The GI50 was 0.375 µM.

And the TGI (HL-60(TB) leukemia)?
Its TGI is > 100 µM.

What about the GI50 (HOP-62 NSCLC) of the same molecule?
The GI50 was 1.23 µM.

What about the TGI (HOP-62 NSCLC) of the same molecule?
Its TGI is > 62.4 µM.

What about the GI50 (HOP-92 NSCLC) of the same molecule?
The GI50 was 1.23 µM.

What about the TGI (HOP-92 NSCLC) of the same molecule?
The TGI was 45.3 µM.

What about the GI50 (HS 578T breast) of the same molecule?
Its GI50 is 0.537 µM.

And the TGI (HS 578T breast)?
Its TGI is 29.9 µM.

And the GI50 (HT29 colon)?
The GI50 was 0.449 µM.

And the TGI (HT29 colon)?
Its TGI is > 63.1 µM.

What about the GI50 (IGROV1 ovarian) of the same molecule?
Its GI50 is 0.903 µM.

And the TGI (IGROV1 ovarian)?
Its TGI is 61.5 µM.

And the GI50 (K-562 leukemia)?
The GI50 was 0.434 µM.

What about the TGI (K-562 leukemia) of the same molecule?
The TGI was > 100 µM.

What about the GI50 (KM12 colon) of the same molecule?
The GI50 was 0.0684 µM.

And the TGI (KM12 colon)?
The TGI was 29 µM.

What about the GI50 (LOX IMVI melanoma) of the same molecule?
The GI50 was 1.07 µM.

And the TGI (LOX IMVI melanoma)?
Its TGI is > 61.8 µM.

What about the GI50 (M14 melanoma) of the same molecule?
Its GI50 is 0.448 µM.

What about the TGI (M14 melanoma) of the same molecule?
Its TGI is 32.2 µM.

And the GI50 (MALME-3M melanoma)?
The GI50 was 0.809 µM.

And the TGI (MALME-3M melanoma)?
The TGI was 24.3 µM.

And the GI50 (MCF7 breast)?
Its GI50 is 0.037 µM.

What about the TGI (MCF7 breast) of the same molecule?
Its TGI is > 100 µM.

What about the GI50 (MDA-MB-231 breast) of the same molecule?
Its GI50 is 1.21 µM.

What about the TGI (MDA-MB-231 breast) of the same molecule?
The TGI was 19.3 µM.

And the GI50 (MDA-MB-435)?
Its GI50 is 0.25 µM.

What about the TGI (MDA-MB-435) of the same molecule?
Its TGI is 0.805 µM.

What about the GI50 (MOLT-4 leukemia) of the same molecule?
The GI50 was 0.68 µM.

And the TGI (MOLT-4 leukemia)?
The TGI was > 100 µM.

And the GI50 (NCI-H226 lung)?
Its GI50 is 2.2 µM.

What about the TGI (NCI-H226 lung) of the same molecule?
Its TGI is > 46.6 µM.
